In patent publication US20250066377A1, “AMINO CHROMEN-2-ONE MODULATORS OF POLRMT” (Pretzel Therapeutics, Inc., priority 2021, published 2025):

Target: POLRMT (Homo sapiens (Human), UniProt O00411)
Experiment: POLRMT homogeneous TR-FRET mitochondrial transcription assay
Format: biochemical
Details: inhibition of POLRMT; TR-FRET detection of 407 bp RNA transcript; 7.5 nM POLRMT, 15 nM TFB2M, 30 nM TFAM, 60 minutes at 37° C.
Procedure: The inhibitory activity of the compounds of the present invention against POLRMT were determined by assays based on Bergbrede, T., et al., “An adaptable high-throughput technology enabling the identification of specific transcription modulators,” SLAC Discov., 22, 378-386 (2017).
The ability of some compounds of the present invention to inhibit POLRMT were determined in a homogeneous TR-FRET Assay using high-throughput screening in a 384-well plate format. This method is used to monitor the activity of mitochondrial transcription through measurement of its product, a 407 bp long RNA transcript. Detection of the product is facilitated by hybridization of two DNA-oligonucleotide probes to specific and adjacent sequences within the RNA product sequence. Upon annealing of the probes, two fluorophores are coupled directly to an acceptor nucleotide probe (ATTO647, 5′), or introduced via a coupled streptavidin with a biotinylated donor nucleotide probe (Europium cryptate) that is brought into sufficient proximity to serve as a fluorescence-donor-acceptor pair. Thus, a FRET signal at 665 nm is generated upon excitation at 340 nm.
Proteins used as transcription factors (POLRMT: NP_005026.3, TFAM: NP_003192.1, TFB2M: NP_071761.1) are diluted from their stocks to working concentrations of 1 μM, 20 μM and 4 μM respectively, in a dilution buffer containing 20 mM Tris-HCl (pH 8.0), 200 mM NaCl, 10% (v/v) glycerol, 1 mM Dithiothreitol (DTT), 0.5 mM EDTA.
DNA template is a pUC18 plasmid with the mitochondrial light strand promotor sequence (1-477) cloned between HindIII and BamHI sites. The DNA template is restriction linearized proximal to the promotor 3′-end (pUC-LSP).
The reaction mixture (10 uL) containing 7.5 nM POLRMT, 15 nM of TFB2M, 30 nM of TFAM, 0.5 nM of DNA template and 500 μM nucleotide triphosphate mix (NTPs) in a reaction buffer (containing 10 mM Tris-HCl (pH 7.5), 10 mM MgCl2, 40 mM NaCl, 10 mM DTT, 0.005% (w/v) Tween-20, 160 units/ml Rnase inhibitor and 0.1 mg/mL BSA) are dispensed to compounds in microplates, using a Thermo Multidrop® dispenser, and incubated at 37° C. in a VWR INCU-Line incubator for 60 minutes after mixing. No nucleotide triphosphate mix is added to negative control samples. Microplates with compounds to be tested in the assay are prepared from 10 mM compound stocks in 100% DMSO, equal amounts of DMSO without any compound are added to positive control and negative control samples.
During the incubation, a mix of the detection reagents is prepared in a buffer such that the enzymatic reaction is terminated due to chelating of Mg-ions and increased ionic strength, containing 50 mM Tris-HCl (pH 7.5), 700 mM NaCl, 20 mM EDTA, and 0.01% (w/v) Tween-20. Europium-streptavidin is pre-incubated with a 200-fold molar excess of a random sequence oligonucleotide to block unspecific binding of oligo, for two hours at ambient temperature in the dark. Afterwards, the blocked Europium-streptavidin is kept on ice until use.
At the end of the enzymatic reaction time, 5 μL detection oligo mix in the detection buffer is added, and assay plates are mixed and kept at ambient temperature for one hour, protected from light. The concentration of the Acceptor nucleotide oligo (e.g., ATTO647N-5′-[…]-3′) and Donor nucleotide oligo (e.g., bio-5′-AACACATCTCT(-bio)GCCAAACCCCA-bio-3′) in each assay well is 1 nM, and 3 nM, respectively.
After incubation with oligo mix, 5 μL of pre-blocked Europium-streptavidin reagent is dispensed to each assay well, assay plates are again mixed and kept at ambient temperature for one hour, protected from light.
The generated signal is measured with BMG Pherastar microtiter plate reader with a TRF light unit, using excitation at 340 nm, an integration time of 200 μs, and a delay time of 100 μs, before detection at 620 nm and 665 nm. The ratio of donor- and acceptor-fluorescence is used as a measure of the generated transcript product (i.e. enzymatic activity).

POLRMT, sequence (O00411 42-1230): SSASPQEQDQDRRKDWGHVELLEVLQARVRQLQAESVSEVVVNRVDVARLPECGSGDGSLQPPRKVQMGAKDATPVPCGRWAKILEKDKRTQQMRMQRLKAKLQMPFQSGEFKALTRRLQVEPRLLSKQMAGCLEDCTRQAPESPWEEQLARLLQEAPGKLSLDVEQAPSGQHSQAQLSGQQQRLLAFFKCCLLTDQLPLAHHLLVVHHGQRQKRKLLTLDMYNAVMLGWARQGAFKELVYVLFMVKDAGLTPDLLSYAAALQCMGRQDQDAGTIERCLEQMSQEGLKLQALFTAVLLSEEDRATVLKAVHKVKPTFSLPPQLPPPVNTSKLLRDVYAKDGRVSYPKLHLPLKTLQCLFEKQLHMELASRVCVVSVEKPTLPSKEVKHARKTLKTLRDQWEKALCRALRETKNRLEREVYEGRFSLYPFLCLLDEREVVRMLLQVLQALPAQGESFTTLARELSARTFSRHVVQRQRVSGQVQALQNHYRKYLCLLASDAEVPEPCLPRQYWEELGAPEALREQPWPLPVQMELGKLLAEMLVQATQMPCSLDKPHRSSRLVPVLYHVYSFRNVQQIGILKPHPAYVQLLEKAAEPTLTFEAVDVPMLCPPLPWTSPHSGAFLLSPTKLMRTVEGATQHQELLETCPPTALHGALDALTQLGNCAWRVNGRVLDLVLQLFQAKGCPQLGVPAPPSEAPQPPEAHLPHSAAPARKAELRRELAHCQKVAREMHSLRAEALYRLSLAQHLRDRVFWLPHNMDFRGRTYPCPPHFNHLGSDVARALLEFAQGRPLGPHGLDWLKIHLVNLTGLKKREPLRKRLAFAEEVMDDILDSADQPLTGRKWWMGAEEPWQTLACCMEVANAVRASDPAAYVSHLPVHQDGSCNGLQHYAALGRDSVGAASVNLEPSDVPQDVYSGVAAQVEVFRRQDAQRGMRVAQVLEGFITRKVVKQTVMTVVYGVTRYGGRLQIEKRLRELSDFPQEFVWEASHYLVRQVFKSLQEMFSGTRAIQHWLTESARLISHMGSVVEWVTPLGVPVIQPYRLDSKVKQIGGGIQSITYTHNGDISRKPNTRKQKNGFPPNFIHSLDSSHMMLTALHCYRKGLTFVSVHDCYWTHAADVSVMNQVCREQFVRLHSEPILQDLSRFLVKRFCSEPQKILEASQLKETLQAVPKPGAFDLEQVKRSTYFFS

Structure (SMILES)	IC50
COC1CCN(c2ccc3c(-c4ccccc4C)cc(=O)oc3n2)C1 (racemic) [Example 07, 7-(3-methoxypyrrolidin-1-yl)-4-(o-tolyl)-2H-pyrano[2,3-b]pyridin-2-one]	400 nM
COCC1CCN(c2ccc3c(-c4ccccc4C)cc(=O)oc3n2)C1 (racemic) [Example 12, 7-(3-(methoxymethyl)pyrrolidin-1-yl)-4-(o-tolyl)-2H-pyrano[2,3-b]pyridin-2-one]	900 nM
Cc1ccccc1-c1cc(=O)oc2nc(N3CCC(C)(O)C3)ccc12 (racemic) [Example 13, 7-(3-hydroxy-3-methylpyrrolidin-1-yl)-4-(o-tolyl)-2H-pyrano[2,3-b]pyridin-2-one]	300 nM
Cc1ccccc1-c1cc(=O)oc2nc(N3CCC(C(N)=O)C3)ccc12 (racemic) [Example 16, 1-(2-oxo-4-(o-tolyl)-2H-pyrano[2,3-b]pyridin-7-yl)pyrrolidine-3-carboxamide]	2000 nM
Cc1ccccc1-c1cc(=O)oc2nc(N3CCOCC3C)ccc12 (single isomer, unassigned) [Example 14, 7-(3-methylmorpholino)-4-(o-tolyl)-2H-pyrano[2,3-b]pyridin-2-one]	400 nM
Cc1ccccc1-c1cc(=O)oc2nc(N3CCOCC3C)ccc12 (single isomer, unassigned) [Example 15, 7-(3-methylmorpholino)-4-(o-tolyl)-2H-pyrano[2,3-b]pyridin-2-one]	2000 nM
COC1CCN(c2ccc3c(-c4ccccc4C)cc(=O)oc3n2)C1 (single isomer, unassigned) [Example 23, 7-(3-methoxypyrrolidin-1-yl)-4-(o-tolyl)-2H-pyrano[2,3-b]pyridin-2-one]	90 nM
COC1CCN(c2ccc3c(-c4ccccc4C)cc(=O)oc3n2)C1 (single isomer, unassigned) [Example 24, 7-(3-methoxypyrrolidin-1-yl)-4-(o-tolyl)-2H-pyrano[2,3-b]pyridin-2-one]	3000 nM
COC1CCN(c2ccc3c(-c4ccc(F)cc4Cl)cc(=O)oc3n2)C1 (single isomer, unassigned) [Example 25, 4-(2-chloro-4-fluorophenyl)-7-(3-methoxypyrrolidin-1-yl)-2H-pyrano[2,3-b]pyridin-2-one]	1000 nM
COC1CCN(c2ccc3c(-c4ccc(F)cc4Cl)cc(=O)oc3n2)C1 (single isomer, unassigned) [Example 26, 4-(2-chloro-4-fluorophenyl)-7-(3-methoxypyrrolidin-1-yl)-2H-pyrano[2,3-b]pyridin-2-one]	21000 nM
Cc1ccccc1-c1cc(=O)oc2nc(N3CCC(C)(O)C3)ccc12 (single isomer, unassigned) [Example 27, 7-(3-hydroxy-3-methylpyrrolidin-1-yl)-4-(o-tolyl)-2H-pyrano[2,3-b]pyridin-2-one]	1000 nM
Cc1ccccc1-c1cc(=O)oc2nc(N3CCC(C)(O)C3)ccc12 (single isomer, unassigned) [Example 28, 7-(3-hydroxy-3-methylpyrrolidin-1-yl)-4-(o-tolyl)-2H-pyrano[2,3-b]pyridin-2-one]	1000 nM
Cc1ccccc1-c1cc(=O)oc2nc(N3CCC(C(N)=O)C3)ccc12 (single isomer, unassigned) [Example 29, 1-(2-oxo-4-(o-tolyl)-2H-pyrano[2,3-b]pyridin-7-yl)pyrrolidine-3-carboxamide]	7000 nM
Cc1ccccc1-c1cc(=O)oc2nc(N(C)C)ccc12 [Example 01, 7-(dimethylamino)-4-(o-tolyl)-2H-pyrano[2,3-b]pyridin-2-one]	1000 nM
Cc1ccccc1-c1cc(=O)oc2nc(N3CCOCC3)ccc12 [Example 02, 7-morpholino-4-(o-tolyl)-2H-pyrano[2,3-b]pyridin-2-one]	2000 nM
Cc1ccccc1-c1cc(=O)oc2nc(N3CCCC3)ccc12 [Example 03, 7-(pyrrolidin-1-yl)-4-(o-tolyl)-2H-pyrano[2,3-b]pyridin-2-one]	200 nM
COCCN(C)c1ccc2c(-c3ccccc3C)cc(=O)oc2n1 [Example 04, 7-((2-methoxyethyl)(methyl)amino)-4-(o-tolyl)-2H-pyrano[2,3-b]pyridin-2-one]	2000 nM
CCN(C)c1ccc2c(-c3ccccc3C)cc(=O)oc2n1 [Example 05, 7-(ethyl(methyl)amino)-4-(o-tolyl)-2H-pyrano[2,3-b]pyridin-2-one]	400 nM
CC(=O)N1CCN(c2ccc3c(-c4ccccc4C)cc(=O)oc3n2)CC1 [Example 06, 7-(4-acetylpiperazin-1-yl)-4-(o-tolyl)-2H-pyrano[2,3-b]pyridin-2-one]	> 100000 nM
Cc1ccccc1-c1cc(=O)oc2nc(N3CCC(N(C)C)C3)ccc12 (centres unmarked) [Example 08, 7-[3-(dimethylamino)pyrrolidin-1-yl]-4-(o-tolyl)pyrano[2,3-b]pyridin-2-one]	18000 nM

The remaining lines, values ahead:

IC50	Structure (SMILES)
900 nM	Cc1ccccc1-c1cc(=O)oc2nc(N3CCC(C(N)=O)C3)ccc12 (single isomer, unassigned) [Example 30, 1-(2-oxo-4-(o-tolyl)-2H-pyrano[2,3-b]pyridin-7-yl)pyrrolidine-3-carboxamide]
400 nM	COCC1CCN(c2ccc3c(-c4ccccc4C)cc(=O)oc3n2)C1 (single isomer, unassigned) [Example 31, 7-(3-(methoxymethyl)pyrrolidin-1-yl)-4-(o-tolyl)-2H-pyrano[2,3-b]pyridin-2-one]
1000 nM	COCC1CCN(c2ccc3c(-c4ccccc4C)cc(=O)oc3n2)C1 (single isomer, unassigned) [Example 32, 7-(3-(methoxymethyl)pyrrolidin-1-yl)-4-(o-tolyl)-2H-pyrano[2,3-b]pyridin-2-one]
7000 nM	Cc1ccccc1-c1cc(=O)oc2nc(N3CCC(C(=O)O)C3)ccc12 (single isomer, unassigned) [Example 33, 1-(2-oxo-4-(o-tolyl)-2H-pyrano[2,3-b]pyridin-7-yl)pyrrolidine-3-carboxylic acid]
20000 nM	Cc1ccccc1-c1cc(=O)oc2nc(N3CCC(C(=O)O)C3)ccc12 (single isomer, unassigned) [Example 34, 1-(2-oxo-4-(o-tolyl)-2H-pyrano[2,3-b]pyridin-7-yl)pyrrolidine-3-carboxylic acid]
200 nM	Cc1ccccc1-c1cc(=O)oc2nc(N3CCCC3C(=O)O)ccc12 (single isomer, unassigned) [Example 37, 1-(2-oxo-4-(o-tolyl)-2H-pyrano[2,3-b]pyridin-7-yl)pyrrolidine-2-carboxylic acid]
1000 nM	Cc1ccccc1-c1cc(=O)oc2nc(N3CCCC3C(=O)O)ccc12 (single isomer, unassigned) [Example 38, 1-(2-oxo-4-(o-tolyl)-2H-pyrano[2,3-b]pyridin-7-yl)pyrrolidine-2-carboxylic acid]
500 nM	Cc1ccccc1-c1cc(=O)oc2nc(N(C)C(C)C(N)=O)ccc12 (single isomer, unassigned) [Example 48, 2-(methyl(2-oxo-4-(o-tolyl)-2H-pyrano[2,3-b]pyridin-7-yl)amino)propanamide]
1000 nM	Cc1ccccc1-c1cc(=O)oc2nc(N(C)C(C)C(N)=O)ccc12 (single isomer, unassigned) [Example 49, 2-(methyl(2-oxo-4-(o-tolyl)-2H-pyrano[2,3-b]pyridin-7-yl)amino)propanamide]
